From ChEMBL document CHEMBL4673289, “Design, synthesis and biological evaluation of imidazolopyridone derivatives as novel BRD4 inhibitors” (Bioorg Med Chem, 2021)
Calls of active or inactive are those of the source. No cut-off for these calls is given here.

Key:
[1] = biological target: T1, Bromodomain-containing protein 4 (Homo sapiens, UniProt O60885); assay: Inhibition of BRD4 (unknown origin) at 1 uM preincubated for 15 mins followed by substrate addition and measured after 1 hr by AlphaScreen assay relative to control; details: time 75.0 min
[2] = biological target: T1, Bromodomain-containing protein 4; assay: Inhibition of BRD4 (unknown origin) preincubated for 15 mins followed by substrate addition and measured after 1 hr by AlphaScreen assay relative to control
SMMC-7721 = assay: Antiproliferative activity against human SMMC-7721 cells assessed as cell growth inhibition at 2 uM measured after 48 to 72 hrs by MTT assay relative to control; format: functional; details: time 48-72 hrs, read-out: GI
BXPC-3 = assay: Antiproliferative activity against human BXPC-3 cells assessed as cell growth inhibition at 2 uM measured after 48 to 72 hrs by MTT assay relative to control; format: functional; details: time 48-72 hrs, read-out: GI
PANC-1 = assay: Antiproliferative activity against human PANC-1 cells assessed as cell growth inhibition at 2 uM measured after 48 to 72 hrs by MTT assay relative to control; format: functional; details: time 48-72 hrs, read-out: GI
Panc02 = assay: Antitumor activity against mouse Panc02 allografted in BALB/c mouse assessed as reduction in tumor weight at 100 mg/kg, ip administered every day for 20 days relative to control; format: functional; details: 480 h, time 20 day, read-out: TGI
[3] = Toxicity in BALB/c mouse allografted with mouse Panc02 cells assessed as effect on body weight at 100 mg/kg, ip administered every day measured after 19 days; format: organism-based; details: in vivo, 456 h, time 19 day
Mus musculus [4] = assay: Upregulation of caspase 3 in BALB/c mouse allografted with mouse Panc02 cells […] at 100 mg/kg, ip administered every day measured after 20 days by immunohistochemical analysis; format: functional, organism-based; details: time 20.0 day
Mus musculus [5] = assay: Downregulation of Ki67 expression in BALB/c mouse allografted with mouse Panc02 cells […] at 100 mg/kg, ip administered every day measured after 20 days by immunohistochemical analysis; format: functional, organism-based; details: time 20.0 day

inhibition [1] [%] | IC50 [2] [nM] | Structure (SMILES) | inhibition of growth at 2 µM (SMMC-7721) [%] | inhibition of growth at 2 µM (BXPC-3) [%] | inhibition of growth at 2 µM (PANC-1) [%] | further results
95.2 | 261 | CCS(=O)(=O)c1ccc(Oc2cc(-c3c(C)noc3C)ccc2C)c(-c2cn(C)c(=O)c3cncn23)c1 | 11.4 | 30.2 | 20.6 | 
31.2 |  | CCS(=O)(=O)c1ccc(Oc2cc(-c3c(C)noc3C)ccc2C#N)c(-c2cn(C)c(=O)c3cncn23)c1 |  |  |  | 
62.7 |  | Cc1noc(C)c1-c1cccc(Oc2ccc(S(C)(=O)=O)cc2-c2cn(C)c(=O)c3cncn23)c1 |  |  |  | 
99.9 | 56 | CCS(=O)(=O)c1ccc(Oc2cc(-c3c(C)noc3C)ccc2OC)c(-c2cn(C)c(=O)c3cncn23)c1 | 18.4 | 42.2 | 16.2 | 
40.1 |  | CCS(=O)(=O)c1ccc(Oc2cc(F)c(F)c(F)c2)c(-c2cn(C)c(=O)c3cncn23)c1 |  |  |  | 
99.5 | 152 | CCS(=O)(=O)c1ccc(Oc2cc(-c3c(C)noc3C)ccc2F)c(-c2cn(C)c(=O)c3cncn23)c1 | 21.3 | 33.2 | 19.6 | 
78.1 |  | CCS(=O)(=O)c1ccc(Oc2ccc(F)c(-c3c(C)noc3C)c2)c(-c2cn(C)c(=O)c3cncn23)c1 |  |  |  | 

The remaining lines, values behind:

Structure (SMILES) | inhibition [1] [%] | IC50 [2] [nM] | inhibition of growth at 2 µM (SMMC-7721) [%] | inhibition of growth at 2 µM (BXPC-3) [%] | inhibition of growth at 2 µM (PANC-1) [%] | further results
CCS(=O)(=O)c1ccc(Oc2cc(-c3c(C)noc3C)ccc2Cl)c(-c2cn(C)c(=O)c3cncn23)c1 | 86.3 |  |  |  |  | 
CCS(=O)(=O)c1ccc(Oc2cccc(-c3c(C)noc3C)c2)c(-c2cn(C)c(=O)c3cncn23)c1 | 93.2 | 435 | 18.2 | 41.2 | 21.6 | 
CCS(=O)(=O)c1ccc(Oc2ccc(Cl)c(-c3c(C)noc3C)c2)c(-c2cn(C)c(=O)c3cncn23)c1 | 64.9 |  |  |  |  | 
CCS(=O)(=O)c1ccc(Oc2ccc(C)c(-c3c(C)noc3C)c2)c(-c2cn(C)c(=O)c3cncn23)c1 | 96.5 | 254 | 19.9 | 35.8 | 23.7 | 
Nc1ccn([C@@H]2O[C@H](CO)[C@@H](O)C2(F)F)c(=O)n1 [GEMCITABINE] |  |  |  |  |  | inhibition in vivo at 100 mg/kg (Panc02): 70%; Activity [3]: Non-Toxic; Activity (Mus musculus [4]): Active; Activity (Mus musculus [5]): Active
CCS(=O)(=O)c1ccc(Oc2cccc(-c3c(C)noc3C)n2)c(-c2cn(C)c(=O)c3cncn23)c1 | 70.2 |  |  |  |  | 
Cc1sc2c(c1C)C(c1ccc(Cl)cc1)=N[C@@H](CC(=O)C(C)(C)C)c1nnc(C)n1-2 | 99.5 | 88 | 12.2 | 31.1 | 17.1 | 
